# Source: ChEMBL document CHEMBL1201862, “PubChem BioAssay data set” (2004)
# Activity calls are given as the source filed them. Cut-off read from the data, not from the text of the source, for most assays here: actives have a measured EC50 and inactives only a lower limit.
# Key:
# [1] = target: T1, RNA-binding protein pos-1 (Caenorhabditis elegans, UniProt G5EF15); experiment: disruptors of C. elegans POS-1 RNA interaction – biochemical, fluorescence polarization, dose response (AID 1964);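 note: purified POS-1 fused to maltose binding protein made in E. coli; potency of compounds blocking POS-1 binding to fluorescent RNA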
# T1 sequence (G5EF15 whole entry): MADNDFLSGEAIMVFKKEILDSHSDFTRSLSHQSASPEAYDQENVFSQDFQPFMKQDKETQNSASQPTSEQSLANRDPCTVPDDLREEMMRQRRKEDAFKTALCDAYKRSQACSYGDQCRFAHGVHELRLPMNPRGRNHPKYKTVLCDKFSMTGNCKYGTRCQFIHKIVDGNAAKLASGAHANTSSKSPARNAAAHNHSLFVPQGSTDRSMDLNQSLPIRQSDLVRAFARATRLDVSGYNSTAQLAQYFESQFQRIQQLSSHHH
# [2] = target: T2, Zinc finger protein mex-5 (Caenorhabditis elegans, UniProt Q9XUB2); experiment: potency of MEX-5 RNA-binding blockers – biochemical, C. elegans, fluorescence polarization, dose response (AID 1960)
# T2 sequence (Q9XUB2 whole entry): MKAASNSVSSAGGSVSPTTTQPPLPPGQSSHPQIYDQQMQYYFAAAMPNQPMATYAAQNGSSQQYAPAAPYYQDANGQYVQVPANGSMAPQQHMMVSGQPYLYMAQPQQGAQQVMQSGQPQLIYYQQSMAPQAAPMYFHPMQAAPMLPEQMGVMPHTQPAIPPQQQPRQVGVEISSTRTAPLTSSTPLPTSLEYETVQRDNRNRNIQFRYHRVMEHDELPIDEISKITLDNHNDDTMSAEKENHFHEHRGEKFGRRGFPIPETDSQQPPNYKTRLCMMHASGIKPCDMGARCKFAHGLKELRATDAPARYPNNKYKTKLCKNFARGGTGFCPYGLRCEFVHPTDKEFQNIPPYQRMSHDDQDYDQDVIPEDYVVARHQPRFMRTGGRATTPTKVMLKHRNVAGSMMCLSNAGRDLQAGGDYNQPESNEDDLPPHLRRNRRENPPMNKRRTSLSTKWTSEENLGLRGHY
# [3] = target: T3, Heat shock factor protein 1 (Mus musculus, UniProt P38532); experiment: decrease of HSF1-responsive luciferase luminescence – cell-based, NIH3T3, dose retest, confirmation (AID 2382); type: functional;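 note: NIH3T3 fibroblasts with HSF1-driven luciferase reporter stressed by proteasome inhibitor MG132; luminescence from HSF1-driven luciferase expression after 8 hours of MG132 stress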
# T3 sequence (P38532 whole entry): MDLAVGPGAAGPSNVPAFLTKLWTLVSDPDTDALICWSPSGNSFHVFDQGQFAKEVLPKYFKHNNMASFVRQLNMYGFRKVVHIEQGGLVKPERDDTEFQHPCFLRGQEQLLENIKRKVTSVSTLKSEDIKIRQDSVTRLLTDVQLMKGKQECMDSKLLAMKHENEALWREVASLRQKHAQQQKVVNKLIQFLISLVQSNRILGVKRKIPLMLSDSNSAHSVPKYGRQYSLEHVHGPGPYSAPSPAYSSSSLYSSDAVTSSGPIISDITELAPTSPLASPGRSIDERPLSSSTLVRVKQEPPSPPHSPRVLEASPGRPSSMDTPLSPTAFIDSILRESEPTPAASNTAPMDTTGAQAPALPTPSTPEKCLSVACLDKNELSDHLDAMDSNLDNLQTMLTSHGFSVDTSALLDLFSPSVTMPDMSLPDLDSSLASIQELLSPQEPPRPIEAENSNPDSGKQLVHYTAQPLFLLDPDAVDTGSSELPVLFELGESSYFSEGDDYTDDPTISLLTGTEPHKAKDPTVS
# [4] = target: T4, Protein skinhead-1 (Caenorhabditis elegans, UniProt P34707); type: functional
# T4 sequence (P34707 whole entry): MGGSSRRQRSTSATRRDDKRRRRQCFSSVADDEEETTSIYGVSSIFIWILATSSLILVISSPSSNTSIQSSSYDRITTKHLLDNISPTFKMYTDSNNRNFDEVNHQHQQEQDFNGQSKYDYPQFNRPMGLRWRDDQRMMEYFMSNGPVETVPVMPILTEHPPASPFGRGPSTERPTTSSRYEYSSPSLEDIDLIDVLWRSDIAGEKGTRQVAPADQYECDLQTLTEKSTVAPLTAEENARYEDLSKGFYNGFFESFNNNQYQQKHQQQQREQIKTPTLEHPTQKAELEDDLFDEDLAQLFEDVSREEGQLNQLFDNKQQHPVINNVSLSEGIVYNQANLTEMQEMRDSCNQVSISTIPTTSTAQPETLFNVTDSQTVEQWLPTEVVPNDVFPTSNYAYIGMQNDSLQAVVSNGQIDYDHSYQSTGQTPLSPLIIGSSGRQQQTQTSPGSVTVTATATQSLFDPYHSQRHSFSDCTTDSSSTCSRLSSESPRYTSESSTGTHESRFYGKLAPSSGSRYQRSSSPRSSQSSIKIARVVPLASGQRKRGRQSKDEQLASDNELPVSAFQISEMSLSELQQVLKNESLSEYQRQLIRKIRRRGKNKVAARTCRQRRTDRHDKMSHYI
# [5] = Luminescence Cell-Based Dose Response HTS to Identify Inhibitors of 5'UTR Stem-Loop Driven Prion Protein mRNA Translation in H4 Neuroglioblastoma Cells. [Related pubchem assays: 1827 (Project Summary), 1813 (Primary HTS)]; type: functional
# [6] = alpha-synuclein stem-loop luciferase translation blockers – H4 neuroglioma cells, luminescence, confirmation (AID 1988); type: functional, cell-based
# [7] = target: T5, Replicative DNA helicase DnaB (Mycobacterium tuberculosis, UniProt P9WMR3); experiment: DnaB intein splicing inhibitors, dose response, biochemical, cell-free fluorescence (AID 449749); type: functional
# T5 sequence (P9WMR3 whole entry): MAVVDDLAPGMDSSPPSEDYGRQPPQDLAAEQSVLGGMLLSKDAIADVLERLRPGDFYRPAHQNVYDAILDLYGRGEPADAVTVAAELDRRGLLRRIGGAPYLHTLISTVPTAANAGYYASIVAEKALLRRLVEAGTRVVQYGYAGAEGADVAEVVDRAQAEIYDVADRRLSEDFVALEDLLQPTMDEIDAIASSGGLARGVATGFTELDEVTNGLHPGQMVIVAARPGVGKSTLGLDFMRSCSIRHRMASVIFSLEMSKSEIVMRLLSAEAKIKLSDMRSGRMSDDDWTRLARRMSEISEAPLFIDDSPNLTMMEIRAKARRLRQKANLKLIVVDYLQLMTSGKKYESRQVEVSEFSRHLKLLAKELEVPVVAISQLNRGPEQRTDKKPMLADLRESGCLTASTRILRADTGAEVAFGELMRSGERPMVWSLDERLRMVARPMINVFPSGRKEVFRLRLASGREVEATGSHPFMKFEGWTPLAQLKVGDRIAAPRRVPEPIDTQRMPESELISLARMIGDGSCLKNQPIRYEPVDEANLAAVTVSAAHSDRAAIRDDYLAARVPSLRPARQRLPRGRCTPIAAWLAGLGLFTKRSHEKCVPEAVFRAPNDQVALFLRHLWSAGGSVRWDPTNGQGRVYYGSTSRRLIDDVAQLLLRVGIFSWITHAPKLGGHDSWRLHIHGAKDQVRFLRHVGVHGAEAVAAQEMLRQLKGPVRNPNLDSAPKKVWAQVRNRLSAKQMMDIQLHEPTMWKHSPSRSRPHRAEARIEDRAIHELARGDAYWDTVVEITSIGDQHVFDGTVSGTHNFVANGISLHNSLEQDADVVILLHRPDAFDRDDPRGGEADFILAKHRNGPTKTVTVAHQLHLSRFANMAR
# [8] = target: T6, Protein RecA (Mycobacterium tuberculosis, UniProt P9WHJ3); experiment: Fluorescence Cell-Free Homogeneous Dose Retest to Identify Inhibitors of RecA-Intein Splicing Activity. [Related pubchem assays (depositor defined):AID2097, AID2223, AID489010, AID492950]; type: functional
# T6 sequence (P9WHJ3 whole entry): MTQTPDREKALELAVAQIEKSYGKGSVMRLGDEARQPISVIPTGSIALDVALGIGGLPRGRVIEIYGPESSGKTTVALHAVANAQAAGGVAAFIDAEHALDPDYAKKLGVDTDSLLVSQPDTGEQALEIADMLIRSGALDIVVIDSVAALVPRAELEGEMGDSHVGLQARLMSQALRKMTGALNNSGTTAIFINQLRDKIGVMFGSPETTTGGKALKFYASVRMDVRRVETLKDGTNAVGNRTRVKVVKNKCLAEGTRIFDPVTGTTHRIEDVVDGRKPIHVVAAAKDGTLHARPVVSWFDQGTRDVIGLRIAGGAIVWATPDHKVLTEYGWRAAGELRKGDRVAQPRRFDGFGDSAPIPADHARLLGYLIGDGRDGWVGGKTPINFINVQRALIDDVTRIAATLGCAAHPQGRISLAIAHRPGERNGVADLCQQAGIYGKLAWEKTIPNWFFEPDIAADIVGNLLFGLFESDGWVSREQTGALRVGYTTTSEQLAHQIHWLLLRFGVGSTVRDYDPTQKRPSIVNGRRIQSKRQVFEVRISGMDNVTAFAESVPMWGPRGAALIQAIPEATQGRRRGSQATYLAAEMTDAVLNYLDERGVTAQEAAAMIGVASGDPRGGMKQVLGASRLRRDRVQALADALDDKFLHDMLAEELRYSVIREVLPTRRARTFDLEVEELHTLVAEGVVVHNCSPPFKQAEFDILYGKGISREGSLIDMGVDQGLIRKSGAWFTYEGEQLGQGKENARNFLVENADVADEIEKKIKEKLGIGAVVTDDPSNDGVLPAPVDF
# [9] = target: Luciferin 4-monooxygenase (Photinus pyralis, UniProt P08659); experiment: inhibition of purified Photinus pyralis luciferase – biochemical, luminescence, dose response (AID 1891)
# [10] = Luminescence Cell-Based Dose Confirmation HTS to Identify Inhibitors of Platelet Dense Granule Release. [Related pubchem assays: 1663 (Primary HTS), 1678 (Summary of Project)]; type: functional
# [11] = test system: Streptococcus sp. 'group A'; experiment: Streptococcus pyogenes SK(-)GAS viability under kanamycin – luminescence, BacTiterGlo, confirmation, counter-screen for streptokinase expression inhibitor project, dose response (AID 1900); type: functional, organism-based
# [12] = test system: Streptococcus; experiment: GAS UMAA2166 growth inhibition – luminescence, BacTiterGlo, counter-screen for streptokinase expression inhibitor project, dose response (AID 1915); type: functional, organism-based;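 note: potency for reduction of bacterial viability or growth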
# [13] = Luminescence Cell-Based Dose Retest to Confirm Inhibitors of Cancer Stem Cells. [Related pubchem assays (depositor defined):AID2717, AID2721]; type: functional; conditions: Homo sapiens
# Sequence of Luciferin 4-monooxygenase (P08659 whole entry): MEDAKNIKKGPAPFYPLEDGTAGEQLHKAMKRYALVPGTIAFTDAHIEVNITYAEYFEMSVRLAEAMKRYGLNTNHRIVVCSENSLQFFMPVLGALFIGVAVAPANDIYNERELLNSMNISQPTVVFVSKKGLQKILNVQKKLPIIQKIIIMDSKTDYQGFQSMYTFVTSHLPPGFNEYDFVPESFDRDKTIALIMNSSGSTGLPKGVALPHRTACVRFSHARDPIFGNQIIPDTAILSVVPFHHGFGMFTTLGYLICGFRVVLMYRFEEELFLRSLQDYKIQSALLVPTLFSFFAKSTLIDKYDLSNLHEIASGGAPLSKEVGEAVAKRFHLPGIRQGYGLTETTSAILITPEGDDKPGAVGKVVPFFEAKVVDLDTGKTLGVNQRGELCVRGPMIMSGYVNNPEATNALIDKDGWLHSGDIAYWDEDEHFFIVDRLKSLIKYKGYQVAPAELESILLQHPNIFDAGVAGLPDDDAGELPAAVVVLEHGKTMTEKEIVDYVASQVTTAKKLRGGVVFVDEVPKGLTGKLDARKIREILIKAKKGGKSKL
SMILES,EC50 [1],EC50 [2],IC50 [4],AC50 [7],EC50 [8],other results
CC1(C)CC(=O)C2=C(C1)OC(N)=C(C#N)[C@@H]2c1ccccc1[N+](=O)[O-],22.3 µM (inconclusive),23.9 µM (active),–,–,–,–
O=C(O)c1cc(-c2cccc3ccccc23)nc2ccccc12,–,–,> 100 µM (inactive),–,–,EC50 [3]: > 195 µM (not active)
CCN(CC)S(=O)(=O)c1cccc(-c2nnc(SCC(=O)c3cc(C)n(C4CC4)c3C)o2)c1,–,–,> 100 µM (inactive),–,–,–
c1ccc(CSc2nnc(-c3cccs3)o2)cc1,–,–,30.2 µM (active),–,–,–
N#Cc1c(C#N)c(-c2ccccc2)n(-c2ccc(C(=O)O)cc2)c1N,> 300 µM (not active),> 300 µM (not active),–,–,–,–
Cc1ccc(-c2[nH]ncc2/C=C(\C#N)C(=O)NC2CCCCC2)cc1,–,–,> 100 µM (inactive),–,–,EC50 [5]: 71.5 µM (active); EC50 [6]: > 120 µM (not active)
Oc1nc2ccc(Cl)cc2c(-c2ccccc2)c1SC(=S)N1CCCCC1,–,–,–,> 380 µM (inactive),> 380 µM (inactive),–
CCc1ccccc1N1C(=O)NC(=O)/C(=C\c2cc(C)n(C)c2C)C1=O,> 300 µM (not active),> 300 µM (inconclusive),–,–,–,–
Cc1c(C)n(C)c2ccc(C(=O)NCCN3CCOCC3)cc12,–,–,> 100 µM (inactive),–,–,–
O=C(NCc1nnc(S)n1-c1ccc(F)cc1)c1ccc(S(=O)(=O)N2CCOCC2)cc1,–,–,> 100 µM (inactive),–,–,–
Cc1cc(/C=C2/C(=O)NC(=O)N(c3ccc(Br)cc3)C2=O)c(C)n1C,52.2 µM (active),53 µM (active),–,–,–,–
N#CC1=C(N)C(C#N)(C#N)[C@H](c2ccsc2)[C@H]2COCC=C12,> 300 µM (not active),> 300 µM (not active),–,–,–,–
O=C(O)c1ccccc1-n1c(-c2ccccc2)cc2c1CCCC2=O,> 300 µM (not active),> 300 µM (not active),–,–,–,–
CCCc1c(C(=O)NNc2cccc(Cl)c2)cnn1-c1ccccc1,–,–,–,10.7 µM (active),> 380 µM (inactive),–
COc1ccc(/C=C2\N=C(C)OC2=O)cc1OC,> 300 µM (not active),> 300 µM (not active),–,–,–,–
COC(=O)c1c(NC(=O)/C=C/C(=O)O)sc(Cc2ccccc2)c1C,–,–,–,3.23 µM (active),7.93 µM (active),–
COc1cc(C(c2c(C)n[nH]c2O)c2c(C)n[nH]c2O)cc(OC)c1OC,–,–,–,0.313 µM (active),0.262 µM (active),–
Cc1ccc(S(=O)(=O)NCCC(=O)OCC(=O)NC(=O)c2cccn2C)cc1,–,–,–,–,–,EC50 [9]: > 112 µM (not active); EC50 [10]: > 112 µM (not active)
Nc1cccc2c(O)cccc12,–,–,–,22.1 µM (active),15.5 µM (active),–
CC(C)=CCC/C(C)=C/Cc1c(O)ccc(C(=O)/C=C/c2ccc(O)cc2)c1O [XANTHOANGELOL],–,–,–,3.19 µM (active),88.4 µM (active),EC50 [11]: 1.05 µM (active); EC50 [12]: 1.68 µM (active); AC50 [13]: 9.49 µM (active)
